{"source": "patent US12286618B2", "about": "“Lactic acid bacteria” (priority 2018, dated 2025)", "biological_target": "Streptococcus thermophilus glucokinase (GlcK) DGCC7710 variant E275K, strain DSM32587 (DGCC12534), SEQ ID NO: 22 (Streptococcus thermophilus, UniProt Q5M4Y5, E275K)", "sequence (Q5M4Y5 entry or part of it E275K)": "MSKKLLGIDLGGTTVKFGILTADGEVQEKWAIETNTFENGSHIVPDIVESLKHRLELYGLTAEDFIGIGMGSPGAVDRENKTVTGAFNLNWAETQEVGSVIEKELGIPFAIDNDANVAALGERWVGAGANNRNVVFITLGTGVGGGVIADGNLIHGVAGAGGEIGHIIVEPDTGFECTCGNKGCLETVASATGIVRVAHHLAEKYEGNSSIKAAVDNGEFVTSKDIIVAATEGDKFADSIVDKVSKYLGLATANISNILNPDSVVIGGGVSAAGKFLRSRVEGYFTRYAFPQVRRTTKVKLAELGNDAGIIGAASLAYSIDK", "details": "substrate glucose (0, 5, 10, 15, 20 mM); 1 mM ATP; pH 7.2; 30° C.; crude extract; mean of three independent experiments", "procedure": "A fresh overnight culture of the Streptococcus thermophilus strain to be assayed in M17 containing 30 g/L lactose is obtained and used to inoculate at 1% (vol/vol) 10 ml of fresh M17 30 g/L lactose. Cells are harvested by centrifugation (6000 g, 10 min, 4° C.) at a 600 nm optical density (OD600) of 0.8+/−0.2, washed in 5 ml cold GLCK buffer (5 mM MgCl2, 10 mM K2HPO4/KH2PO4 [pH 7.2]), and resuspended in 500 μl cold GLCK buffer. EDTA-free protease inhibitors “cOmplete™” (Roche, supplier reference 04693132001) is added in GLCK buffer as described by the provider. […] Total protein content is determined by using the FLUKA Protein Quantification Kit-Rapid (ref 51254). The glucokinase activity in the cell extracts is determined spectrophotometrically by a glucose-6-phosphate dehydrogenase (G-6PDH, EC1.1.1.49): NADPH-coupled assay (Porter et al., 1982), essentially as described by Pool et al. (2006). […] The optical density at 340 nm is measured for 5 minutes by using a Synergy HT multi-detection microplate reader (BIO-TEK). […]\nA fresh overnight culture of a Streptococcus thermophilus strain in M17 containing 30 g/L lactose was obtained and used to inoculate at 1% (vol/vol) 10 ml of fresh M17 30 g/L lactose. […] Total protein content was determined by using the FLUKA Protein Quantification Kit-Rapid (ref 51254). […]", "data": [{"smiles": "OC[C@H]1OC(O)[C@H](O)[C@@H](O)[C@@H]1O", "note": "(stereo partly shown) [glucose]", "values": [{"measurement": "Vmax Glucokinase", "value": 914, "unit": "U/g total protein extract"}]}]}
